Several values for one entry are separate records, joined by “and”; a condition that tells them apart may be missing. Equal entries are not always repeated.
Assays:
male ICR mice [1] = test: Global activity during CPP conditioning; assay type: in vivo; settings: s.c.; for Global activity versus vehicle controls: morphine 15 mg/kg (first injection), PPL-101 and PPL-103 3.0 mg/kg (first and third injections)
male ICR mice [2] = test: Conditioned place preference (CPP) paradigm; assay type: in vivo; settings: s.c., three drug sessions; morphine 15 mg/kg, PPL-101 1-3 mg/kg, PPL-103 0.3-3 mg/kg
male Sprague-Dawley rats [3] = test: Intravenous self-administration (FR-1 and PR schedules)
male ICR mice [4] = test: Tail flick assay (thermal nociception); assay type: in vivo; settings: for Antinociception (%MPE) versus vehicle: 60-min post-injection, s.c., PPL-101 0.3-10 mg/kg, PPL-103 0.3-3 mg/kg; for Tail flick latency after antagonist alone: given 24 h before vehicle, JDTic 10 mg/kg, beta-FNA 40 mg/kg s.c.
mu opioid receptor = molecular target: T1, mu opioid receptor (Homo sapiens, UniProt P35372); assay type: biochemical
T1 construct: expressed in transfected cells; membranes prepared
T1 sequence (P35372 whole entry): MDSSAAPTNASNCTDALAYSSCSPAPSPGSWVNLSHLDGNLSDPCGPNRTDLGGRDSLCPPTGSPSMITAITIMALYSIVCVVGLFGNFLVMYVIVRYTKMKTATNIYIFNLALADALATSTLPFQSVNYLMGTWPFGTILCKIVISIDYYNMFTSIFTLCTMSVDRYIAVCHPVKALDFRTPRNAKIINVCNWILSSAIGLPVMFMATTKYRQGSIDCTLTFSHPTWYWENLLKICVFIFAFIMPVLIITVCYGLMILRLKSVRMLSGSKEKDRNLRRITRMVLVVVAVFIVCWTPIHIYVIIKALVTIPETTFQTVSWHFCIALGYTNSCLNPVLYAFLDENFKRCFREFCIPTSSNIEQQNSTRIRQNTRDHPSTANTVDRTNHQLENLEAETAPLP

delta opioid receptor [5] = molecular target: T2, delta opioid receptor (Homo sapiens, UniProt P41143); test: biochemical; settings: Receptor binding Ki
T2 construct: expressed in transfected cells; membranes prepared
T2 sequence (P41143 whole entry): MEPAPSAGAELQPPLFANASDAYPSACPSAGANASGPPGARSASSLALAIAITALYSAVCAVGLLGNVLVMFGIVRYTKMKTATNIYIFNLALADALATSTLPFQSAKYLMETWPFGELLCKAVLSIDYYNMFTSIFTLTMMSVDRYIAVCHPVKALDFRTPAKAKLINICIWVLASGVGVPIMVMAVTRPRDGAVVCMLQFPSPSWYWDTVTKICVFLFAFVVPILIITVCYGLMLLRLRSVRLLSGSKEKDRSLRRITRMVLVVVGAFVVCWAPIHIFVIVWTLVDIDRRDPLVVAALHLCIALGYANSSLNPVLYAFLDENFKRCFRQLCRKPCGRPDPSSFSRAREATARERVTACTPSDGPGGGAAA

kappa opioid receptor [6] = molecular target: T3, kappa opioid receptor (Homo sapiens, UniProt P41145); test: biochemical; settings: Receptor binding Ki
T3 construct: expressed in transfected cells; membranes prepared
T3 sequence (P41145 whole entry): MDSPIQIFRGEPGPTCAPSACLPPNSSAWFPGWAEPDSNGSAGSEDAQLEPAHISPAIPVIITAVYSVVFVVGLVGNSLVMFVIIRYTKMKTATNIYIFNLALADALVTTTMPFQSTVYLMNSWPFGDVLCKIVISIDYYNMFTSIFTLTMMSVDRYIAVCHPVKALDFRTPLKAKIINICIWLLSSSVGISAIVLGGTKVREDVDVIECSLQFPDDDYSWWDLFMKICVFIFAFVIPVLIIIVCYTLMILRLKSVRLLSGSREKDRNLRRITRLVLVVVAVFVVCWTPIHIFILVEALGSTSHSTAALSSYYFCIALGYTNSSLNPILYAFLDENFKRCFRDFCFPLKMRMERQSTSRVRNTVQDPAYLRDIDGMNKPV

delta opioid receptor [7] = molecular target: T2, delta opioid receptor; test: [35S]GTPγS binding, CHO cell membranes; assay type: biochemical; settings: for Delta % Stim.: [35S]GTPγS binding, mean ± SEM
kappa opioid receptor [8] = molecular target: T3, kappa opioid receptor; test: biochemical
male Sprague-Dawley rats [9] = test: Plantar test (paw withdrawal latency); assay type: in vivo; settings: U-69,593 0.3 mg/kg
non-human primates = settings: ref Harris et al. unpublished observation; cited from earlier work

Row | Structure (SMILES) | Global activity versus vehicle controls (male ICR mice [1]) | Acquisition of CPP (difference score) versus vehicle controls (male ICR mice [2]) | Antinociception (%MPE) versus vehicle (male ICR mice [4]; morphine 15 mg/kg) | Mu % Stim. (mu opioid receptor) [%] | Ki (delta opioid receptor [5]) [nM] | Ki (kappa opioid receptor [6]) [nM] | Delta % Stim. (delta opioid receptor [7]) [%] | Kappa % Stim. (kappa opioid receptor [8]) [%] | Tail flick latency after antagonist alone (male ICR mice [4]) | also measured
1 | CN1CC[C@]23c4c5ccc(O)c4O[C@H]2[C@@H](O)C=C[C@H]3[C@H]1C5 [Morphine, reference compound] | increase in global activity after the first drug injection relative to vehicle controls | exhibited a significant CPP | produced the maximal effect in increase in tail flick relative to vehicle controls |  |  |  |  |  |  | Global activity after third versus first drug injection (male ICR mice [1]; morphine 15 mg/kg, PPL-101 3 mg/kg): increase in activity following the third drug injection relative to the first drug injection; Effect of JDTic on self-administration of the compound (male Sprague-Dawley rats [3]; 100 µg/kg/infusion, FR1TO20, JDTic 10 mg/kg i.p., seven sessions versus baseline): no significant effect of JDTic on morphine self-administration; Average responses on the morphine-associated lever (male Sprague-Dawley rats [3]; 100 µg/kg/infusion, last 3 days prior to PPL-101 self-administration, mean ± SEM): 29.0 ± 5.8 and 27.2 ± 6.1 and 32.2 ± 12.6; Time course of antinociception (%MPE) versus vehicle (male ICR mice [4]; 0.5, 1, 2, 4 h post-injection, PPL-101 0.3-10 mg/kg s.c., morphine 15 mg/kg): anticipated increase in %MPE at all the time points compared to vehicle controls; Effect of JDTic pretreatment on the compound's antinociception (male ICR mice [4]; JDTic 10 mg/kg s.c. 24 h before): not altered by the kappa antagonist JDTic; Effect of beta-FNA pretreatment on the compound's antinociception (male ICR mice [4]; beta-FNA 40 mg/kg s.c. 24 h before): completely inhibited by the mu opioid antagonist beta-FNA
2 | C[C@H]1[C@H]2Cc3ccc(O)cc3[C@]1(C)CCN2CC1CC1 [Cyclazocine, cycloproplymethyl-benzomorphan, reference compound] |  |  |  | 33 ± 18 | 0.8 ± 0.05 | 0.1 ± 0.02 | 82 ± 9 | 80 ± 9 |  | 
3 | COC(=O)C=CC(=O)NC1CCC2(O)C3Cc4ccc(O)c5c4C2(CCN3CC2CC2)C1O5.Cl (stereo not drawn) [beta-FNA, beta-funaltrexamine HCl, reference compound] |  |  |  |  |  |  |  |  | have no effect on tail flick latency in mice | 
4 | C[C@@H](NC(=O)[C@@H](N)Cc1ccc(O)cc1)C(=O)NCC(=O)N(C)[C@@H](Cc1ccccc1)C(=O)NCCO [DAMGO, [D-Ala2, N-MePhe4, Gly-ol]-enkephalin, reference compound] |  |  |  | 100 |  |  |  | 62 ± 21.0 |  | 
5 | CC(C)[C@@H](CN1CC[C@@](C)(c2cccc(O)c2)[C@@H](C)C1)NC(=O)[C@H]1Cc2ccc(O)cc2CN1 [JDTic, (3R)-7-hydroxy-N-[(1S)-1-[[(3R,4R)-4-(3-hydroxyphenyl)-3,4-dimethyl-1-piperidinyl]methyl]-2-methylpropyl]-1,2,3,4-tetrahydro-3-isoquinoline-carboxamide] |  |  |  |  |  |  |  |  | have no effect on tail flick latency in mice | Blockade of U-69,593-induced antinociception (male Sprague-Dawley rats [9]; JDTic 10 mg/kg single dose): able to block the antinociceptive effect U-69,593; Antinociception (paw withdrawal latency) (male Sprague-Dawley rats [9]; JDTic 10 mg/kg single treatment one week before): by itself did not
6 | CC(C1CC1)N1CCC23CCCCC2C1Cc1ccc(O)cc13 (stereo not drawn) [PPL-103, α-methyl-cyclopropylmethyl-morphinan] | decreases in global activity relative to vehicle controls following the first and third drug injections | did not reveal any significant difference | potent antinociception at all doses tested |  | 0.29 ± 0.03 | 2.47 ± 0.105 | 41.7 ± 5.0 | 39.8 ± 3.9 |  | Number of infusions under PR schedule (male Sprague-Dawley rats [3]; 30-100 µg/kg/infusion i.v., versus morphine 100 µg/kg/infusion): significantly decreased compared to the morphine group; Self-administration under FR-1 schedule when substituted for morphine (male Sprague-Dawley rats [3]; 30 and 100 µg/kg/infusion i.v., versus morphine 100 µg/kg/infusion): markedly decreased as compared to responses for morphine across all test sessions; Dose giving maximal antinociception equivalent to morphine, as fraction of morphine's dose (male ICR mice [4]; mice): 1/10; EC50 (delta opioid receptor [7]): 2.99 ± 0.92 nM; Substitution for morphine in single-dose suppression test (non-human primates): substituted for morphine; EC50 (kappa opioid receptor [8]): 9.01 ± 2.64 nM
